These results are taken from patent US20230089867A1, “CYCLIC PENTAMER COMPOUNDS AS PROPROTEIN CONVERTASE SUBTILISIN/KEXIN TYPE 9 (PCSK9) INHIBITORS FOR THE TREATMENT OF METABOLIC DISORDER” (Novartis AG, priority 2018, published 2023).

The assay deals with human PCSK9 (Homo sapiens, UniProt Q8NBP7). The assay is described as follows: PCSK9 ligand binding TR-FRET assay (interference with binding of human PCSK9 to human LDLR). Conditions: for Max % inhibition: PCSK9 FRET assay, efficacy (Amax), 100% = 1 uM unlabeled human PCSK9, 0% = DMSO; for pIC50: TR-FRET, human PCSK9 Alexa Fluor 647 / human LDLR extracellular domain-Europium Kryptate, read-out: PCSK9 FRET Assay IC50. Put shortly:
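Threefold compound dilutions were pre-incubated 30 min with PCSK9, after which 4 nM Europium Kryptate-tagged human LDLR ectodomain was added for a further 2 h.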
Background: Time-resolved FRET reads energy transfer from a long-lived donor to a nearby acceptor.

pIC50: −log10 of the molar value.

human PCSK9, sequence (Q8NBP7 153-692): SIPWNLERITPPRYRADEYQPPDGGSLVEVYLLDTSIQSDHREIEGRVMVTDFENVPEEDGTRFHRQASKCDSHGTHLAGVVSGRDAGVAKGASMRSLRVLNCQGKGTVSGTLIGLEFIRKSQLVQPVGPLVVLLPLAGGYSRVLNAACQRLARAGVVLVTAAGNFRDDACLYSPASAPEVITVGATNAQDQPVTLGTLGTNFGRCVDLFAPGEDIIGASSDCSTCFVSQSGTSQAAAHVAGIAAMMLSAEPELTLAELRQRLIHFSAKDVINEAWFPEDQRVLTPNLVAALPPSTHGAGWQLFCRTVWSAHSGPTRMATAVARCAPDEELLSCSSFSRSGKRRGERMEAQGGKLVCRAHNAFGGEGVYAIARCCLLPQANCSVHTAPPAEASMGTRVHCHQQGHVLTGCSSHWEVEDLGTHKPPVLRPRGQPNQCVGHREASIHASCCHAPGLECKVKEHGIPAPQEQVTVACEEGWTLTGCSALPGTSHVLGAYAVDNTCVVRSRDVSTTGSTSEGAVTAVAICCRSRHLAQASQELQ
human PCSK9, sequence (Q8NBP7 31-152 partner limits assumed): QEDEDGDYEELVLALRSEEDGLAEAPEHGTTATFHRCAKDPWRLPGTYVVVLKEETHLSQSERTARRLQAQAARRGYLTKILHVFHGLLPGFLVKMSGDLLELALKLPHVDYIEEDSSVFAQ

In general, pIC50 refers to the negative decadic logarithm of the IC50, by convention in mol/L. In the case of `COCCN(CCOC)C(=O)C[C@H]1C(=O)N[C@@H](COC)C(=O)N(C)[C@@H](Cc2ccc(Cl)cc2)CC(=O)N[C@H]2CCCC[C@@H]2N(C)C(=O)[C@H](Cc2ccccc2)CC(=O)N1Cc1ccc(Cl)cc1Oc1ccc(-c2cnc(CN(C)C)n2C)cc1` [Compound 218, 2-((4S,7S,10S,14R,16aS,20aS)-14-benzyl-11-(4-chloro-2-(4-(2-((dimethylamino)methyl)-1-methyl-1H-imidazol-5-yl)phenoxy)benzyl)-4-(4-chlorobenzyl)-7-(methoxymethyl)-5,16-dimethyl-2,6,9,12,15-pentaoxodocosahydrobenzo[l][1,4,7,11,14]pentaazacyclooctadecin-10-yl)-N ,N-bis(2-methoxyethyl)acetamide], the Max % inhibition amounted to 105.97% and the pIC50 was 9.00.
As to `COC[C@@H]1NC(=O)[C@H](CC(=O)O)N(Cc2ccc(Cl)cc2Oc2ccc(-c3cnc(CN(C)C)n3C)cc2)C(=O)C[C@@H](Cc2ccccc2)C(=O)N(C)[C@H]2CCCC[C@@H]2NC(=O)C[C@H](Cc2ccc(Cl)cc2)N(C)C1=O` [Compound 219, 2-((4S,7S,10S,14R,16aS,20aS)-14-benzyl-11-(4-chloro-2-(4-(2-((dimethylamino)methyl)-1-methyl-1H-imidazol-5-yl)phenoxy)benzyl)-4-(4-chlorobenzyl)-7-(methoxymethyl)-5,16-dimethyl-2,6,9,12,15-pentaoxodocosahydrobenzo[l][1,4,7,11,14]pentaazacyclooctadecin-10-yl)acetic acid], the Max % inhibition was 105.15% and the pIC50 is 9.05.
`COC[C@@H]1NC(=O)[C@H](C)N(Cc2ccc(Cl)cc2Oc2ccc(-c3cnc(CN4CC[C@H](O)C4)n3C)cc2)C(=O)C[C@@H](Cc2ccccc2)C(=O)N(C)[C@@H](C)CNC(=O)C[C@H](Cc2ccc(Cl)cc2)N(C)C1=O` [Compound 220, (2S,5S,8S,13S,16R)-16-benzyl-1-(4-chloro-2-(4-(2-(((S)-3-hydroxypyrrolidin-1-yl)methyl)-1-methyl-1H-imidazol-5-yl)phenoxy)benzyl)-8-(4-chlorobenzyl)-5-(methoxymethyl)-2,7,13,14-tetramethyl-1,4,7,11,14-pentaazacyclooctadecane-3,6,10,15,18-pentaone]: the Max % inhibition stood at 94.82% and the pIC50 is 8.68.
Take `CNC(=O)C[C@@H]1NC(=O)[C@H](C)N(Cc2ccc(Cl)cc2Oc2ccc(-c3cnc(CN(C)C)n3C)cc2)C(=O)C[C@@H](Cc2ccccc2)C(=O)N(C)[C@@H](C)CNC(=O)C[C@H](Cc2ccc(Cl)cc2)N(C)C1=O` [Compound 221, 2-((2S,5S,8S,13S,16R)-16-benzyl-1-(4-chloro-2-(4-(2-((dimethylamino)methyl)-1-methyl-1H-imidazol-5-yl)phenoxy)benzyl)-8-(4-chlorobenzyl)-2,7,13,14-tetramethyl-3,6,10,15,18-pentaoxo-1,4,7,11,14-pentaazacyclooctadecan-5-yl)-N-methylacetamide]: the Max % inhibition came to 98.35% and the pIC50 was 8.85.
`CCc1ccc(CN2C(=O)C[C@@H](Cc3ccccc3)C(=O)N(C)[C@H]3CCCC[C@@H]3NC(=O)C[C@H](Cc3ccc(Cl)cc3)N(C)C(=O)[C@H](COC)NC(=O)[C@@H]2C)c(Oc2ccc(-c3cnc(CN4CCCC4)n3C)cc2)c1` [Compound 223, (4S,7S,10S,14R,16aS,20aS)-14-benzyl-4-(4-chlorobenzyl)-11-(4-ethyl-2-(4-(1-methyl-2-(pyrrolidin-1-ylmethyl)-1H-imidazol-5-yl)phenoxy)benzyl)-7-(methoxymethyl)-5,10,16-trimethylhexadecahydrobenzo[l][1,4,7,11,14]pentaazacyclooctadecine-2,6,9,12,15(3H)-pentaone]: the Max % inhibition is 100.16% and the pIC50 was 8.74.
As for `COC[C@@H]1NC(=O)[C@H](C)N(Cc2ccc(Cl)cc2Oc2ccc(-c3cnc(CN(C)C)n3C)cc2)C(=O)C[C@@H](Cc2ccccc2)C(=O)N(C)[C@@H]2CCOC[C@H]2NC(=O)C[C@H](Cc2ccc(Cl)cc2)N(C)C1=O` [Compound 224, (4S,7S,10S,14R,16aR,20aS)-14-benzyl-11-(4-chloro-2-(4-(2-((dimethylamino)methyl)-1-methyl-1H-imidazol-5-yl)phenoxy)benzyl)-4-(4-chlorobenzyl)-7-(methoxymethyl)-5,10,16-trimethyltetradecahydro-1H-pyrano[3,4-l][1,4,7,11,14]pentaazacyclooctadecine-2,6,9,12,15(3H)-pentaone], the Max % inhibition was 95.15% and the pIC50 is 6.19.
In the case of `COC[C@@H]1NC(=O)[C@H](CCCCN(C)C)N(Cc2ccc(Cl)cc2Oc2ccc(-c3cnc(CN(C)C)n3C)cc2)C(=O)C[C@@H](Cc2ccccc2)C(=O)N(C)[C@@H](C)CNC(=O)C[C@H](Cc2ccc(Cl)cc2)N(C)C1=O` [Compound 225, (2S,5S,8S,13S,16R)-16-benzyl-1-(4-chloro-2-(4-(2-((dimethylamino)methyl)-1-methyl-1H-imidazol-5-yl)phenoxy)benzyl)-8-(4-chlorobenzyl)-2-(4-(dimethylamino)butyl)-5-(methoxymethyl)-7,13,14-trimethyl-1,4,7,11,14-pentaazacyclooctadecane-3,6,10,15,18-pentaone], the Max % inhibition worked out at 98.86% and the pIC50 is 8.10.
With `C[C@H]1C(=O)N[C@@H](COC(=O)C(C)(C)C)C(=O)N(C)[C@@H](Cc2ccc(Cl)cc2)CC(=O)N[C@H]2CCCC[C@@H]2N(C)C(=O)[C@H](Cc2ccccc2)CC(=O)N1Cc1ccc(Cl)cc1Oc1ccc(-c2cnc(CN(C)C)n2C)cc1` [Compound 226, ((4S,7S,10S,14R,16aS,20aS)-14-benzyl-11-(4-chloro-2-(4-(2-((dimethylamino)methyl)-1-methyl-1H-imidazol-5-yl)phenoxy)benzyl)-4-(4-chlorobenzyl)-5,10,16-trimethyl-2,6,9,12,15-pentaoxodocosahydrobenzo[l][1,4,7,11,14]pentaazacyclooctadecin-7-yl)methyl pivalate], the Max % inhibition was found to be 42.24% and the pIC50 is 6.60.
Take `COC[C@@H]1NC(=O)[C@H](C)N(Cc2ccc(Cl)cc2Oc2ccc(-c3cnc(CN(C)C)n3C)cc2)C(=O)CN2C[C@H](CNC(=O)C[C@H](Cc3ccc(Cl)cc3)N(C)C1=O)N(C)C2=O` [Compound 227, (5S,8S,11S,16S)-4-(4-chloro-2-(4-(2-((dimethylamino)methyl)-1-methyl-1H-imidazol-5-yl)phenoxy)benzyl)-11-(4-chlorobenzyl)-8-(methoxymethyl)-5,10,17-trimethyl-1,4,7,10,14,17-hexaazabicyclo[14.2.1]nonadecane-3,6,9,13,18-pentaone]: the Max % inhibition was determined as 104.70% and the pIC50 is 8.06.
On to `COC[C@@H]1NC(=O)C(C)N(Cc2ccc(F)cc2Oc2ccc(-c3cnc(CN(C)C)n3C)cc2)C(=O)C[C@@H](Cc2ccccc2)C(=O)N(C)[C@H]2CCCC[C@@H]2NC(=O)C[C@H](Cc2ccc(Cl)cc2)N(C)C1=O` (stereo partly drawn) [Compound 228, (4S,7S,14R,16aS,20aS)-14-benzyl-4-(4-chlorobenzyl)-11-(2-(4-(2-((dimethylamino)methyl)-1-methyl-1H-imidazol-5-yl)phenoxy)-4-fluorobenzyl)-7-(methoxymethyl)-5,10,16-trimethylhexadecahydrobenzo[l][1,4,7,11,14]pentaazacyclooctadecine-2,6,9,12,15(3H)-pentaone], for which the Max % inhibition came out at 93.92% and the pIC50 is 8.08.
Regarding `COC[C@@H]1NC(=O)[C@H](C)N(Cc2ccc(Cl)cc2Oc2ccc(-c3cnc(CN4CCCC4)n3C)cc2)C(=O)C[C@@H](Cc2ccccc2F)C(=O)N(C)[C@@H](C)CNC(=O)C[C@H](Cc2ccc(Cl)cc2)N(C)C1=O` [Compound 229, (2S,5S,8S,13S,16R)-1-(4-chloro-2-(4-(1-methyl-2-(pyrrolidin-1-ylmethyl)-1H-imidazol-5-yl)phenoxy)benzyl)-8-(4-chlorobenzyl)-16-(2-fluorobenzyl)-5-(methoxymethyl)-2,7,13,14-tetramethyl-1,4,7,11,14-pentaazacyclooctadecane-3,6,10,15,18-pentaone], the Max % inhibition amounted to 99.91% and the pIC50 is 9.22.
For the molecule `COC[C@@H]1NC(=O)[C@H](C)N(Cc2c(Cl)cccc2Oc2ccc(-c3cnc(CN(C)C)n3C)cc2)C(=O)C[C@@H](C)C(=O)N(C)[C@@H](C)CNC(=O)C[C@H](Cc2ccc(Cl)cc2)N(C)C1=O` [Compound 230, (2S,5S,8S,13S,16R)-1-(2-chloro-6-(4-(2-((dimethylamino)methyl)-1-methyl-1H-imidazol-5-yl)phenoxy)benzyl)-8-(4-chlorobenzyl)-5-(methoxymethyl)-2,7,13,14,16-pentamethyl-1,4,7,11,14-pentaazacyclooctadecane-3,6,10,15,18-pentaone], the Max % inhibition stood at 46.03% and the pIC50 was 7.11.
As to `COC[C@@H]1NC(=O)[C@H](C)N(Cc2cccc(F)c2Oc2ccc(-c3cnc(CN(C)C)n3C)cc2)C(=O)C[C@@H](Cc2ccccc2)C(=O)N(C)[C@@H](C)CNC(=O)C[C@H](Cc2ccc(Cl)cc2)N(C)C1=O` [Compound 232, (2S,5S,8S,13S,16R)-16-benzyl-8-(4-chlorobenzyl)-1-(2-(4-(2-((dimethylamino)methyl)-1-methyl-1H-imidazol-5-yl)phenoxy)-3-fluorobenzyl)-5-(methoxymethyl)-2,7,13,14-tetramethyl-1,4,7,11,14-pentaazacyclooctadecane-3,6,10,15,18-pentaone], the Max % inhibition worked out at 96.17% and the pIC50 is 8.24.
On to `C[C@H]1CNC(=O)C[C@H](Cc2ccc(Cl)cc2)N(C)C(=O)[C@H](CCC(=O)O)NC(=O)[C@H](C)N(Cc2ccc(Cl)cc2Oc2ccc(-c3cnc(CN(C)C)n3C)cc2)C(=O)C[C@@H](Cc2ccccc2)C(=O)N1C` [Compound 233, 3-((2S,5S,8S,13S,16R)-16-benzyl-1-(4-chloro-2-(4-(2-((dimethylamino)methyl)-1-methyl-1H-imidazol-5-yl)phenoxy)benzyl)-8-(4-chlorobenzyl)-2,7,13,14-tetramethyl-3,6,10,15,18-pentaoxo-1,4,7,11,14-pentaazacyclooctadecan-5-yl)propanoic acid], for which the Max % inhibition was determined as 90.08% and the pIC50 is 6.15.
